Earlier results on two compounds are cited in US7157444B2, “Aminosalicylate derivatives for treatment of inflammatory bowel disease” (priority 2002, dated 2007).

The structures appear in SMILES notation.

The conditions of this series: oral, 40 mL of a suspension of 1 g of ASA in water, fasted healthy subjects.

As to `CC(=O)Nc1ccc(O)c(C(=O)O)c1` [N-acetyl-ASA], the maximum plasma concentration is 11.4 µg/mL and the “time of maximum plasma concentration post-dose” value was “Within an hour post-dose”.

For the compound `Nc1ccc(O)c(C(=O)O)c1` [ASA, 5-aminosalicylic acid], the maximum plasma concentration is 14.7 µg/mL and the “time of maximum plasma concentration post-dose” value is “Within an hour post-dose”.
